Laboratory results taken from the PolyMetriX glass transition set.

SMILES: *C/C(C)=C/C(C)S(*)(=O)=O (repeat unit)
- glass transition temperature: 83.00 °C

SMILES: *C1CCC(CC2CCC(N3C(=O)c4ccc(-c5ccc6c(c5)C(=O)N(*)C6=O)cc4C3=O)CC2)CC1 (repeat unit)
- glass transition temperature: 242.00 °C

SMILES: *CC1CC2CC1C1CCC(CN3C(=O)c4ccc(-c5ccc6c(c5)C(=O)N(*)C6=O)cc4C3=O)C21 (repeat unit)
- glass transition temperature: 230.00 °C

SMILES: *CC1CCCC(CN2C(=O)c3ccc(C(c4ccc5c(c4)C(=O)N(*)C5=O)(C(F)(F)F)C(F)(F)F)cc3C2=O)C1 (repeat unit)
- glass transition temperature: 222.00 °C

SMILES: *CCCCCCCCCCCCN1C(=O)c2ccc(C(c3ccc4c(c3)C(=O)N(CCCCCCCCCCCCN3C(=O)c5ccc6c7ccc8c9c(ccc(c%10ccc(c5c6%10)C3=O)c97)C(=O)N(*)C8=O)C4=O)(C(F)(F)F)C(F)(F)F)cc2C1=O (repeat unit)
- glass transition temperature: 170.00 °C

SMILES: *CCN(CCN1C(=O)c2ccc(C(c3ccc4c(c3)C(=O)N(*)C4=O)(C(F)(F)F)C(F)(F)F)cc2C1=O)c1ccc(/N=N/c2ccc(C3OCCO3)cc2)cc1 (repeat unit)
- glass transition temperature: 178.00 °C

SMILES: *CN1C(=O)c2ccc(C(c3ccc4c(c3)C(=O)N(Cc3nc5cc(-c6ccc7oc(*)nc7c6)ccc5o3)C4=O)(C(F)(F)F)C(F)(F)F)cc2C1=O (repeat unit)
- glass transition temperature: 231.00 °C

SMILES: *CN1C(=O)c2ccc(C(c3ccc4c(c3)C(=O)N(Cc3nnc(-c5ccc(-c6nnc(*)o6)c(Oc6ccccc6)c5)o3)C4=O)(C(F)(F)F)C(F)(F)F)cc2C1=O (repeat unit)
- glass transition temperature: 208.00 °C

SMILES: *CN1C(=O)c2ccc(C(c3ccc4c(c3)C(=O)N(Cc3nnc(-c5ccc(-c6nnc(*)o6)cc5)o3)C4=O)(C(F)(F)F)C(F)(F)F)cc2C1=O (repeat unit)
- glass transition temperature: 214.00 °C

SMILES: *CN1C(=O)c2ccc(C(c3ccc4c(c3)C(=O)N(Cc3nnc(-c5ccc(Oc6ccc(-c7nnc(*)o7)cc6)cc5)o3)C4=O)(C(F)(F)F)C(F)(F)F)cc2C1=O (repeat unit)
- glass transition temperature: 210.00 °C

SMILES: *Oc1ccc(C(=O)c2cccc(C(=O)c3ccc(Oc4ccc(Cc5ccc(*)cc5)cc4)cc3)c2)cc1 (repeat unit)
- glass transition temperature: 145.00 °C

SMILES: *Oc1ccc(C2(c3ccc(Oc4ccc(C(=O)c5cccc(C(=O)c6ccc(*)cc6)c5)cc4)cc3)c3ccccc3-c3ccccc32)cc1 (repeat unit)
- glass transition temperature: 223.00 °C

SMILES: *c1cc(Br)c(Oc2c(Br)cc(N3C(=O)c4ccc(S(=O)(=O)c5ccc6c(c5)C(=O)N(*)C6=O)cc4C3=O)cc2Br)c(Br)c1 (repeat unit)
- glass transition temperature: 328.00 °C

SMILES: *c1ccc(C2(c3ccc(N4C(=O)c5ccc(S(=O)(=O)c6ccc7c(c6)C(=O)N(*)C7=O)cc5C4=O)cc3)c3ccccc3-c3ccccc32)cc1 (repeat unit)
- glass transition temperature: 392.00 °C

SMILES: *c1ccc(N2C(=O)c3ccc(-c4ccc5c(c4)C(=O)N(*)C5=O)cc3C2=O)cc1 (repeat unit)
- glass transition temperature: 341.00 °C

SMILES: *c1ccc(N2C(=O)c3ccc(P(=O)(c4ccccc4)c4ccc5c(c4)C(=O)N(*)C5=O)cc3C2=O)cc1 (repeat unit)
- glass transition temperature: 366.00 °C

SMILES: *c1ccc(OCCCCCCCCCCOc2ccc(N3C(=O)c4ccc(-c5ccc6c(c5)C(=O)N(*)C6=O)cc4C3=O)cc2)cc1 (repeat unit)
- glass transition temperature: 153.00 °C

SMILES: *c1ccc(OCCCOc2ccc(N3C(=O)c4ccc(-c5cccc6c5C(=O)N(*)C6=O)cc4C3=O)cc2)cc1 (repeat unit)
- glass transition temperature: 237.50 °C

SMILES: *c1ccc(Oc2cc3ccccc3cc2Oc2ccc(N3C(=O)c4ccc(S(=O)(=O)c5ccc6c(c5)C(=O)N(*)C6=O)cc4C3=O)cc2)cc1 (repeat unit)
- glass transition temperature: 275.00 °C

SMILES: *c1ccc(Oc2ccc(C(=O)c3cccc(C(=O)c4ccc(Oc5ccc(N6C(=O)c7ccc(Oc8ccc9c(c8)C(=O)N(*)C9=O)cc7C6=O)cc5)cc4)c3)cc2)cc1 (repeat unit)
- glass transition temperature: 208.00 °C

SMILES: *c1ccc2[nH]c(*)nc2c1 (repeat unit)
- glass transition temperature: 398.00 °C

SMILES: *c1ccc2c(c1)C(=O)N(C1CCC(N3C(=O)c4ccc(C(*)(C(F)(F)F)C(F)(F)F)cc4C3=O)CC1)C2=O (repeat unit)
- glass transition temperature: 346.50 °C

SMILES: *c1ccc2c(c1)C(=O)N(c1cc(Br)c(Oc3c(Br)cc(N4C(=O)c5ccc(C(*)(C(F)(F)F)C(F)(F)F)cc5C4=O)cc3Br)c(Br)c1)C2=O (repeat unit)
- glass transition temperature: 303.00 °C

SMILES: *c1ccc2c(c1)C(=O)N(c1cc(C(c3ccc(OC(=O)C45CC6CC(CC(C6)C4)C5)c(N4C(=O)c5ccc(C(*)(C(F)(F)F)C(F)(F)F)cc5C4=O)c3)(C(F)(F)F)C(F)(F)F)ccc1OC(=O)C13CC4CC(CC(C4)C1)C3)C2=O (repeat unit)
- glass transition temperature: 305.00 °C

SMILES: *c1ccc2c(c1)C(=O)N(c1ccc(-c3ccc(N4C(=O)c5ccc(C(*)(c6ccccc6)C(F)(F)F)cc5C4=O)cc3C(F)(F)F)c(C(F)(F)F)c1)C2=O (repeat unit)
- glass transition temperature: 280.00 °C

SMILES: *c1ccc2c(c1)C(=O)N(c1ccc(Cc3ccc(N4C(=O)c5ccc(C(F)(F)C(F)(F)C(*)(F)F)cc5C4=O)cc3)cc1)C2=O (repeat unit)
- glass transition temperature: 290.00 °C

SMILES: *c1ccc2c(c1)C(=O)N(c1ccc(N3C(=O)c4ccc(-c5c(-c6ccccc6)c(-c6ccccc6)c(-c6ccc(Sc7ccc(-c8c(-c9ccccc9)c(-c9ccccc9)c(*)c(-c9ccccc9)c8-c8ccccc8)cc7)cc6)c(-c6ccccc6)c5-c5ccccc5)cc4C3=O)cc1)C2=O (repeat unit)
- glass transition temperature: 344.00 °C

SMILES: *c1ccc2c(c1)C(=O)N(c1ccc(NC(=O)C(F)(F)C(F)(F)C(F)(F)C(F)(F)C(=O)Nc3ccc(N4C(=O)c5ccc(C(*)(C(F)(F)F)C(F)(F)F)cc5C4=O)cc3)cc1)C2=O (repeat unit)
- glass transition temperature: 285.00 °C

SMILES: *c1ccc2c(c1)C(=O)N(c1ccc(NC(=S)/N=C/c3ccc(Cl)c(N4C(=O)c5ccc(C(*)(C(F)(F)F)C(F)(F)F)cc5C4=O)c3)cc1)C2=O (repeat unit)
- glass transition temperature: 272.00 °C

SMILES: *c1ccc2c(c1)C(=O)N(c1ccc(OCCCCCCCCCCOc3ccc(N4C(=O)c5ccc(C(*)(C(F)(F)F)C(F)(F)F)cc5C4=O)cc3)cc1)C2=O (repeat unit)
- glass transition temperature: 143.00 °C

SMILES: *c1ccc2c(c1)C(=O)N(c1ccc(OCCCCCCOc3ccc(N4C(=O)c5ccc(C(*)(C(F)(F)F)C(F)(F)F)cc5C4=O)cc3)cc1)C2=O (repeat unit)
- glass transition temperature: 167.00 °C

SMILES: *c1ccc2c(c1)C(=O)N(c1ccc(OCCCCOc3ccc(N4C(=O)c5ccc(C(*)(C(F)(F)F)C(F)(F)F)cc5C4=O)cc3)cc1)C2=O (repeat unit)
- glass transition temperature: 169.00 °C

SMILES: *c1ccc2c(c1)C(=O)N(c1ccc(OCCOCCOCCOCCOc3ccc(N4C(=O)c5ccc(C(*)(C(F)(F)F)C(F)(F)F)cc5C4=O)cc3)cc1)C2=O (repeat unit)
- glass transition temperature: 140.00 °C

SMILES: *c1ccc2c(c1)C(=O)N(c1ccc(OCCOCCOCCOc3ccc(N4C(=O)c5ccc(C(*)(C(F)(F)F)C(F)(F)F)cc5C4=O)cc3)cc1)C2=O (repeat unit)
- glass transition temperature: 166.00 °C

SMILES: *c1ccc2c(c1)C(=O)N(c1ccc(OCCOc3ccc(N4C(=O)c5ccc(C(*)(C(F)(F)F)C(F)(F)F)cc5C4=O)cc3)cc1)C2=O (repeat unit)
- glass transition temperature: 254.00 °C

SMILES: *c1ccc2c(c1)C(=O)N(c1ccc(Oc3ccc(C(=O)c4cccc(C(=O)c5ccc(Oc6ccc(N7C(=O)c8ccc(C(*)(C(F)(F)F)C(F)(F)F)cc8C7=O)cc6)cc5)n4)cc3)cc1)C2=O (repeat unit)
- glass transition temperature: 226.90 °C
